# Reference: article PMC8840560, “Naphthoquine: A Potent Broad-Spectrum Anti-Coronavirus Drug In Vitro” (Molecules, 2022)
# Where two headings read alike, the source gives them in different places.
# Tests used:
# HCoV-229E = assay: CPE inhibition assay, HCoV-229E-infected Huh7 cells; type: cell-based; details: for IC50: Human coronavirus 229E
# HCoV-OC43 = assay: CPE inhibition assay, HCoV-OC43-infected H460 cells; type: cell-based; details: for IC50: Betacoronavirus 1, NCI-H460, HCoV-OC43 (100 TCID50) in H460 cells, CPE, about 72 h, Reed-Muench
# SARS-CoV-2 [1] = assay: Anti-SARS-CoV-2 activity in Vero cells by qRT-PCR of viral RNA in supernatant; type: cell-based; details: Severe acute respiratory syndrome coronavirus 2; SARS-CoV-2 (100 TCID50) in Vero cells, qRT-PCR of supernatant RNA at 48 h, 12 h pretreatment
# SARS-CoV-2 [2] = assay: Time-of-addition assay against SARS-CoV-2 in Vero cells; type: cell-based; details: 10 µM, qRT-PCR at 48 h
# SARS-CoV-2 [3] = test system: SARS-CoV-2; design: method as in PMID 32194981, PMID 33995308; details: in vitro; read-out: IC50 anti-SARS-CoV-2 in vitro; cited from earlier work
# in vitro [4] = details: human, Huh7 cells
# in vitro [5] = details: human, H460 cells
structure (smiles),measurement,setting,value
"CCN(CC)CCCC(C)Nc1ccnc2cc(Cl)ccc12 (stereo not shown) [CQ, Chloroquine phosphate]",IC50,"HCoV-229E; Huh-7, 48 h",8.74 ± 7.27 µM
same,IC50,HCoV-OC43,3.16 ± 0.6 µM
same,IC50,SARS-CoV-2 [1],5.85 ± 0.97 µM
same,"inhibition of SARS-CoV-2 infection at all time points (full-time, first 3 h, last 46 h)",SARS-CoV-2 [2],effectively inhibit SARS-CoV-2 infection at all time points
same,IC50,SARS-CoV-2 [3],< 10 µM
"CCN(CCO)CCCC(C)Nc1ccnc2cc(Cl)ccc12 (stereo not shown) [HCQ, hydroxychloroquine]",IC50,SARS-CoV-2 [3],< 10 µM
"NC(=O)c1ncn([C@@H]2O[C@H](CO)[C@@H](O)[C@H]2O)n1 [RBV, Ribavirin]",SI,HCoV-229E,26.54
same,IC50,"HCoV-229E; Huh-7, HCoV-229E (100 TCID50) in Huh7 cells, CPE, about 48 h, Reed-Muench, read-out: IC50",15.4 ± 5.57 µM
same,SI,HCoV-OC43,15.34
same,IC50,HCoV-OC43,20.7 ± 7.86 µM
same,CC50 at 2 days,in vitro [4],409 µM
same,CC50 at 2 days,in vitro [5],318 µM
OC(c1cc(C(F)(F)F)nc2c(C(F)(F)F)cccc12)C1CCCCN1 (stereo not shown) [mefloquine],IC50,SARS-CoV-2 [3],< 10 µM
